The source of these data is patent US12678412B2, “Substituted tolans for the modulation of microbial colonization” (BioMendics, LLC, priority 2017, dated 2026).

One test deals with MRSA USA 400. Description: Bacterial cell death, DAPI/propidium iodide staining. The note with it: 24 h treatment; 0.002 mM to 0.0625 mM; FIG. 13. The class given is cell-based, Staphylococcus aureus. As to the method: In order to confirm that treatment with BM3103 induced MRSA USA 400 bacterial cell death, both untreated cells and cells treated with BM3103 were stained with a combination of DAPI (nuclear stain) and Propidium iodide (PI, Live dead stain). In a healthy cell, PI is not able to cross the cell membrane and produces no fluorescent signal. If the cell is dead or has a compromised cell membrane it will bind DNA and fluoresces between 535 nm excitation and 617 nm emission. MRSA USA 400 were plated in a well plate at 10^8 CFU/mL in combination with BM3103 treatment or no treatment. Plates were placed at 37° C. for 24 h. Bacteria cells were co-stained with DAPI and PI at 50 μg/mL and 500 μg/mL, respectively, for 15 min at room temperature. Wells were washed with warmed phosphate buffered saline (PBS) and maintained in PBS throughout the imaging acquisition process. Images were captured using the same exposure limits for each filter. […] Concentrations above 0.0625 mM gave a similar result.

The subject of test [1] is Candida albicans ATCC 64550. Description: Colony forming assay, spread plate, Candida albicans. It counts as cell-based. The note with it: Formulation C, compared to low dose, vehicle, Tobramycin and untreated control, 24 h, FIG. 8. The procedure: A fresh culture of pathogenic isolate was used in these examples. The bacterial strains used were Methicillin Resistant Staphylococcus aureus (MRSA USA 300), Pseudomonas aeruginosa ATCC 27312, and Candida albicans ATCC 64550.
FIG. 5 illustrates the spread plate method used in these examples. In sum, agar plates were made, bacteria were diluted to 10^6 or 10^8 CFU/mL, bacteria and drug were mixed together and then plated. Glass spreading beads were used because they give a better bacterial spread. Plates were incubated for 24 hrs then the colonies that formed were counted.
Proliferating cultures of Pseudomonas aeruginosa (PA, ATCC 27312) and Candida albicans (CA, ATCC 64550) were used in a colony forming assay. Freeze-dried bacteria cultures were recovered by swabbing a 3-cm diameter growth area and resuspending it to obtain a final inoculum suspension of approximately 10^6 CFU/mL. The concentration was confirmed using historical optical density measurements. […] Plates were photographed and counted. […]
Colony counts for each treatment were tabulated and the Log of the colony forming units/mL (Log CFU/mL) were determined. The mean and standard deviation of the Log CFU/mL were calculated for each treatment. […]

In another test the test system is Acinetobacter baumannii. Description: Colony forming assay, 24 h plate assay, Acinetobacter baumannii. The class given is cell-based. The note with it: Transcutol formulation, FIG. 11. As to the method:
Proliferating cultures of Acinetobacter baumannii were used in a colony forming assay. Frozen stock cultures of Acinetobacter baumannii were thawed and grown overnight in tryptic soy broth (TSB) with shaking at 37° C. The overnight culture (0.5-1.0 mL) was added to 100 mL TSB and grown at 37° C. with shaking and monitored for an optical density of 0.20-0.38 to obtain a final inoculum suspension of approximately 10^8 CFU/mL.
BM3103 was dissolved into Transcutol (diethylene glycol monoethyl ether) at 2.5% w/v and vortexed until dissolved. This concentration was then serial diluted to achieve the remaining concentrations tested. Before plating, 100 μL of the final inoculum (10^8 CFU/mL) was mixed with 20 μL TSB broth and 80 μL of BM3103 doses or vehicle. Tobramycin, 600 μg/mL, served as the positive control. The final plating concentrations for BM3103 were 1, 0.5, 0.25, and 0.1% w/v (44 mM, 22 mM, 11 mM, 4 mM) BM3103. Vehicle and BM3103 formulations contained matching final concentration of 40% v/v Transcutol.
The Transcutol formulations combined with the inoculum were plated onto TSB agar plates. The plates were grown at 37° C. for 24 h, imaged, and the bacteria colonies were counted. The experiment was done four times at each concentration level described above. Colony counts for each treatment were tabulated and the Log of the colony forming units/mL (Log CFU/mL) were determined. The mean and the standard error of the mean were calculated for each treatment.

Consider `COc1ccc(C#Cc2ccc(O)cc2)cc1` [BM3103, 4-hydroxy-4′-methoxytolan], for which the “PI staining (cell death)” value with MRSA USA 400 is recorded as “dose dependent increase in PI staining”. The “Reduction of CA counts” value is on record as “about 4 fold” in test [1] (high dose 0.5% w/v, 22 mM) and “about 4 fold” in test [1] (medium dose 0.25% w/v, 11 mM). The “Reduction of Acinetobacter baumannii bacterial counts” value in the test on Acinetobacter baumannii (0.1%) is “no reduction”; with Acinetobacter baumannii (0.25%), “slight reduction”; with Acinetobacter baumannii (0.5%) it was 4 fold; in the test with Acinetobacter baumannii (1%) it was “almost a complete reduction”.
